Active and inactive are the calls of the source. The rule behind the calls is not given here.
What was measured:
Klebsiella pneumoniae [1] = test: Growth inhibition of Klebsiella pneumoniae SIPI-KPN-1712 by broth microdilution method; type: organism-based; conditions: in vitro
Klebsiella pneumoniae [2] = test: Synergistic antibacterial activity against Klebsiella pneumoniae SIPI-KPN-1712 assessed as polymixin B MIC at 4 ug/ml by broth microdilution method (reference value: 32 ug/ml); type: functional
Klebsiella pneumoniae [3] = test: Synergistic antibacterial activity against Klebsiella pneumoniae SIPI-KPN-1712 assessed as fold reduction in polymixin B MIC at 4 ug/ml by broth microdilution method relative to polymixin B alone; type: functional
Klebsiella pneumoniae [4] = test: Synergistic antibacterial activity against Klebsiella pneumoniae SIPI-KPN-1712 assessed as fractional Inhibitory concentration index in presence of polymixin B at 2 ug/ml by broth microdilution method; type: functional
Escherichia coli [5] = test: Synergistic antibacterial activity against Escherichia coli isolate 2944 assessed as polymixin B MIC at 4 ug/ml by broth microdilution method (reference value: 0.125 ug/ml); type: functional
Klebsiella pneumoniae [6] = test: Synergistic antibacterial activity against Klebsiella pneumoniae KPN-2967 assessed as polymixin B MIC at 4 ug/ml by broth microdilution method (reference value: 0.5 ug/ml); type: functional
Acinetobacter baumannii [7] = test: Growth inhibition of Acinetobacter baumannii isolate 4 by broth microdilution method; type: organism-based
Acinetobacter baumannii [8] = test: Growth inhibition of Acinetobacter baumannii isolate 3 by broth microdilution method; type: organism-based
Acinetobacter baumannii [9] = test: Synergistic antibacterial activity against Acinetobacter baumannii ATCC 19606 assessed as polymixin B MIC at 4 ug/ml by broth microdilution method (reference value: 0.5 ug/ml); type: functional; conditions: ATCC 19606 = CIP 70.34 = JCM 6841
Acinetobacter baumannii [10] = test: Growth inhibition of Acinetobacter baumannii isolate 1 by broth microdilution method; type: organism-based
Acinetobacter baumannii [11] = test: Synergistic antibacterial activity against Acinetobacter baumannii isolate 3 in presence of polymixin B by broth microdilution method; type: functional
Acinetobacter baumannii [12] = test: Growth inhibition of Acinetobacter baumannii ATCC 19606 by broth microdilution method; type: organism-based, ATCC 19606 = CIP 70.34 = JCM 6841
Escherichia coli [13] = test: Synergistic antibacterial activity against Escherichia coli ATCC 25922 in presence of polymixin B by broth microdilution method; type: functional
Acinetobacter baumannii [14] = test: Synergistic antibacterial activity against Acinetobacter baumannii ATCC 19606 in presence of polymixin B by broth microdilution method; type: functional, ATCC 19606 = CIP 70.34 = JCM 6841
Acinetobacter baumannii [15] = test: Synergistic antibacterial activity against Acinetobacter baumannii isolate 1 in presence of polymixin B by broth microdilution method; type: functional
Acinetobacter baumannii [16] = test: Synergistic antibacterial activity against Acinetobacter baumannii isolate 3 assessed as polymixin B MIC at 4 ug/ml by broth microdilution method (reference value: 0.5 ug/ml); type: functional
Klebsiella pneumoniae [17] = test: Synergistic antibacterial activity against Klebsiella pneumoniae SIPI-KPN-1712 assessed as fold reduction in polymixin B MIC at 1 ug/ml by broth microdilution method relative to polymixin B alone; type: functional
Klebsiella pneumoniae [18] = test: Synergistic antibacterial activity against Klebsiella pneumoniae KPN-2677 assessed as fold reduction in polymixin B MIC by broth microdilution method relative to polymixin B alone; type: functional
Acinetobacter baumannii [19] = test: Synergistic antibacterial activity against Acinetobacter baumannii isolate 2 in presence of polymixin B by broth microdilution method; type: functional
Klebsiella pneumoniae [20] = test: Bactericidal activity against Klebsiella pneumoniae SIPI-KPN-1712 at 4 ug/ml up to 24 hrs by time kill assay; type: ADME, organism-based
Pseudomonas aeruginosa [21] = test: Growth inhibition of Pseudomonas aeruginosa ATCC 27853 by broth microdilution method; type: organism-based
Escherichia coli [22] = test: Synergistic antibacterial activity against Escherichia coli isolate 2944 in presence of polymixin B by broth microdilution method (reference value: 0.125 ug/ml); type: functional
Klebsiella pneumoniae [23] = test: Growth inhibition of Klebsiella pneumoniae KPN-2677 by broth microdilution method; type: organism-based
Klebsiella pneumoniae [24] = test: Synergistic antibacterial activity against Klebsiella pneumoniae KPN-2677 assessed as polymixin B MIC at 4 ug/ml by broth microdilution method (reference value: 0.5 ug/ml); type: functional
Acinetobacter baumannii [25] = test: Synergistic antibacterial activity against Acinetobacter baumannii isolate 1 assessed as polymixin B MIC at 4 ug/ml by broth microdilution method (reference value: 2 ug/ml); type: functional
Acinetobacter baumannii [26] = test: Growth inhibition of Acinetobacter baumannii isolate 2 by broth microdilution method; type: organism-based
Acinetobacter baumannii [27] = test: Synergistic antibacterial activity against Acinetobacter baumannii isolate 2 assessed as polymixin B MIC at 4 ug/ml by broth microdilution method (reference value: 1 ug/ml); type: functional
Pseudomonas aeruginosa [28] = test: Synergistic antibacterial activity against Pseudomonas aeruginosa isolate 1292 in presence of polymixin B by broth microdilution method (reference value: 2 ug/ml); type: functional
Escherichia coli [29] = test: Growth inhibition of Escherichia coli isolate 2945 by broth microdilution method; type: organism-based
Klebsiella pneumoniae [30] = test: Synergistic antibacterial activity against Klebsiella pneumoniae SIPI-KPN-1712 assessed as fold reduction in polymixin B MIC at 8 ug/ml by broth microdilution method relative to polymixin B alone; type: functional
Pseudomonas aeruginosa [31] = test: Synergistic antibacterial activity against Pseudomonas aeruginosa isolate 1399 in presence of polymixin B by broth microdilution method (reference value: 1 ug/ml); type: functional
Klebsiella pneumoniae [32] = test: Synergistic bactericidal activity against Klebsiella pneumoniae SIPI-KPN-1712 at 4 ug/ml in presence of 2 to 4 ug/ml polymixin B up to 24 hrs by time kill assay; type: functional, organism-based
Klebsiella pneumoniae [33] = test: Synergistic antibacterial activity against Klebsiella pneumoniae SIPI-KPN-1712 assessed as fold reduction in polymixin B MIC at 2 ug/ml by broth microdilution method relative to polymixin B alone; type: functional
Klebsiella pneumoniae [34] = test: Growth inhibition of Klebsiella pneumoniae KPN-2967 by broth microdilution method; type: organism-based; conditions: in vivo
Klebsiella pneumoniae [35] = test: Synergistic antibacterial activity against Klebsiella pneumoniae KPN-2967 in presence of polymixin B by broth microdilution method; type: functional
Escherichia coli [36] = test: Growth inhibition of Escherichia coli ATCC 25922 by broth microdilution method; type: organism-based
Pseudomonas aeruginosa [37] = test: Growth inhibition of Pseudomonas aeruginosa isolate 1292 by broth microdilution method; type: organism-based; conditions: in vivo
Klebsiella pneumoniae [38] = test: Synergistic bactericidal activity against Klebsiella pneumoniae SIPI-KPN-1712 at 4 ug/ml in presence of 0.5 to 1 ug/ml polymixin B up to 24 hrs by time kill assay; type: functional, organism-based
Escherichia coli [39] = test: Synergistic antibacterial activity against Escherichia coli isolate 2945 assessed as polymixin B MIC at 4 ug/ml by broth microdilution method (reference value: 0.125 ug/ml); type: functional
Escherichia coli [40] = test: Synergistic antibacterial activity against Escherichia coli isolate 2945 in presence of polymixin B by broth microdilution method (reference value: 0.125 ug/ml); type: functional
Escherichia coli [41] = test: Synergistic antibacterial activity against Escherichia coli ATCC 25922 assessed as polymixin B MIC at 4 ug/ml by broth microdilution method (reference value: 0.25 ug/ml); type: functional
Pseudomonas aeruginosa [42] = test: Synergistic antibacterial activity against Pseudomonas aeruginosa isolate 1399 assessed as polymixin B MIC at 4 ug/ml by broth microdilution method (reference value: 1 ug/ml); type: functional
Pseudomonas aeruginosa [43] = test: Synergistic antibacterial activity against Pseudomonas aeruginosa ATCC 27853 in presence of polymixin B by broth microdilution method (reference value: 1 ug/ml); type: functional
Pseudomonas aeruginosa [44] = test: Growth inhibition of Pseudomonas aeruginosa isolate 1399 by broth microdilution method; type: organism-based; conditions: in vivo
Acinetobacter baumannii [45] = test: Synergistic antibacterial activity against Acinetobacter baumannii isolate 4 assessed as polymixin B MIC at 4 ug/ml by broth microdilution method (reference value: 0.5 ug/ml); type: functional
Pseudomonas aeruginosa [46] = test: Synergistic antibacterial activity against Pseudomonas aeruginosa ATCC 27853 assessed as polymixin B MIC at 4 ug/ml by broth microdilution method (reference value: 1 ug/ml); type: functional
Klebsiella pneumoniae [47] = test: Synergistic antibacterial activity against Klebsiella pneumoniae KPN-2677 in presence of polymixin B by broth microdilution method; type: functional
Escherichia coli [48] = test: Growth inhibition of Escherichia coli isolate 2944 by broth microdilution method; type: organism-based
Pseudomonas aeruginosa [49] = test: Synergistic antibacterial activity against Pseudomonas aeruginosa isolate 1292 assessed as polymixin B MIC at 4 ug/ml by broth microdilution method (reference value: 2 ug/ml); type: functional
Acinetobacter baumannii [50] = test: Synergistic antibacterial activity against Acinetobacter baumannii isolate 4 in presence of polymixin B by broth microdilution method; type: functional
Klebsiella pneumoniae [51] = test: Synergistic antibacterial activity against Klebsiella pneumoniae KPN-2967 assessed as fold reduction in polymixin B MIC by broth microdilution method relative to polymixin B alone; type: functional
Klebsiella pneumoniae [52] = test: Synergistic antibacterial activity against Klebsiella pneumoniae SIPI-KPN-1712 assessed as fold reduction in polymixin B MIC at 16 ug/ml by broth microdilution method relative to polymixin B alone; type: functional

COC1CCCc2nc(Nc3ccc(Br)cc3)sc21 (centres undefined)
MIC (Klebsiella pneumoniae [1]): > 128 µg/mL | MIC (Klebsiella pneumoniae [2]): 2 µg/mL | fold change (FC) (Klebsiella pneumoniae [3]): 16 | fractional inhibitory concentration index (FICI) (Klebsiella pneumoniae [4]): 0.09

COC1CCCc2nc(Nc3ccc(NC(C)=O)cc3)sc21 (centres undefined)
MIC (Klebsiella pneumoniae [1]): > 128 µg/mL | MIC (Klebsiella pneumoniae [2]): 32 µg/mL | fractional inhibitory concentration index (FICI) (Klebsiella pneumoniae [4]): 1.03

OC1CCCc2nc(Nc3ccccc3)sc21 (centres undefined)
MIC (Klebsiella pneumoniae [1]): > 128 µg/mL | MIC (Klebsiella pneumoniae [2]): 32 µg/mL | fractional inhibitory concentration index (FICI) (Klebsiella pneumoniae [4]): 1.03

COC1CCCc2nc(Nc3ccccc3)sc21 (centres undefined)
MIC (Klebsiella pneumoniae [1]): > 128 µg/mL | MIC (Klebsiella pneumoniae [2]): 32 µg/mL | fractional inhibitory concentration index (FICI) (Klebsiella pneumoniae [4]): 1.03

OC1CCCc2nc(Nc3ccc(Cl)cc3)sc21 (centres undefined)
MIC (Escherichia coli [5]): 0.125 µg/mL | MIC (Klebsiella pneumoniae [6]): 0.5 µg/mL | MIC (Acinetobacter baumannii [7]): > 64 µg/mL | MIC (Acinetobacter baumannii [8]): > 64 µg/mL | MIC (Klebsiella pneumoniae [1]): > 128 µg/mL | MIC (Acinetobacter baumannii [9]): 0.5 µg/mL | MIC (Acinetobacter baumannii [10]): > 64 µg/mL | fractional inhibitory concentration index (FICI) (Acinetobacter baumannii [11]): 0.53 | MIC (Acinetobacter baumannii [12]): > 64 µg/mL | fractional inhibitory concentration index (FICI) (Escherichia coli [13]): 0.53 | fractional inhibitory concentration index (FICI) (Acinetobacter baumannii [14]): 0.53 | fractional inhibitory concentration index (FICI) (Acinetobacter baumannii [15]): 0.53 | MIC (Klebsiella pneumoniae [2]): 0.5 µg/mL | MIC (Acinetobacter baumannii [16]): 0.5 µg/mL | fold change (FC) (Klebsiella pneumoniae [17]): 4 | fold change (FC) (Klebsiella pneumoniae [18]): 32 | fractional inhibitory concentration index (FICI) (Acinetobacter baumannii [19]): 0.28 | Activity (Klebsiella pneumoniae [20]): Non-Toxic | MIC (Pseudomonas aeruginosa [21]): > 64 µg/mL | fractional inhibitory concentration index (FICI) (Escherichia coli [22]): 0.28 | MIC (Klebsiella pneumoniae [23]): > 64 µg/mL | MIC (Klebsiella pneumoniae [24]): 0.5 µg/mL | MIC (Acinetobacter baumannii [25]): 2 µg/mL | MIC (Acinetobacter baumannii [26]): > 64 µg/mL | MIC (Acinetobacter baumannii [27]): 1 µg/mL | fold change (FC) (Klebsiella pneumoniae [3]): 64 | fractional inhibitory concentration index (FICI) (Pseudomonas aeruginosa [28]): 1.03 | MIC (Escherichia coli [29]): > 64 µg/mL | fold change (FC) (Klebsiella pneumoniae [30]): 128 | fractional inhibitory concentration index (FICI) (Pseudomonas aeruginosa [31]): 0.53 | Activity (Klebsiella pneumoniae [32]): Active | fold change (FC) (Klebsiella pneumoniae [33]): 16 | MIC (Klebsiella pneumoniae [34]): > 64 µg/mL | fractional inhibitory concentration index (FICI) (Klebsiella pneumoniae [35]): 0.16 | MIC (Escherichia coli [36]): > 64 µg/mL | MIC (Pseudomonas aeruginosa [37]): > 64 µg/mL | fractional inhibitory concentration index (FICI) (Klebsiella pneumoniae [4]): 0.05 | Activity (Klebsiella pneumoniae [38]): inactive | MIC (Escherichia coli [39]): 0.125 µg/mL | fractional inhibitory concentration index (FICI) (Escherichia coli [40]): 0.28 | MIC (Escherichia coli [41]): 0.25 µg/mL | MIC (Pseudomonas aeruginosa [42]): 1 µg/mL | fractional inhibitory concentration index (FICI) (Pseudomonas aeruginosa [43]): 1.03 | MIC (Pseudomonas aeruginosa [44]): > 64 µg/mL | MIC (Acinetobacter baumannii [45]): 0.5 µg/mL | MIC (Pseudomonas aeruginosa [46]): 1 µg/mL | fractional inhibitory concentration index (FICI) (Klebsiella pneumoniae [47]): 0.06 | MIC (Escherichia coli [48]): > 64 µg/mL | MIC (Pseudomonas aeruginosa [49]): 2 µg/mL | fractional inhibitory concentration index (FICI) (Acinetobacter baumannii [50]): 0.53 | fold change (FC) (Klebsiella pneumoniae [51]): 8 | fold change (FC) (Klebsiella pneumoniae [52]): 128

COC1CCCc2nc(Nc3cccnc3)sc21 (centres undefined)
MIC (Klebsiella pneumoniae [1]): > 128 µg/mL | MIC (Klebsiella pneumoniae [2]): 16 µg/mL | fractional inhibitory concentration index (FICI) (Klebsiella pneumoniae [4]): 0.53

COC1CCCc2nc(Nc3cccc(C)c3)sc21 (centres undefined)
MIC (Klebsiella pneumoniae [1]): > 128 µg/mL | MIC (Klebsiella pneumoniae [2]): 32 µg/mL | fractional inhibitory concentration index (FICI) (Klebsiella pneumoniae [4]): 1.03

Clc1ccc(Nc2nc3ccccc3s2)cc1
MIC (Klebsiella pneumoniae [1]): > 128 µg/mL | MIC (Klebsiella pneumoniae [2]): 32 µg/mL | fractional inhibitory concentration index (FICI) (Klebsiella pneumoniae [4]): 1.03

Source: ChEMBL document CHEMBL4257451, “Synergism of fused bicyclic 2-aminothiazolyl compounds with polymyxin B against Klebsiella pneumoniae” (Medchemcomm, 2017)
